The target in this assay is T1, élastase de leucocytes humains (Homo sapiens, UniProt P08246).
T1 construct: purchased Elastin Products Co. SE 563; host or cells: human leukocytes, as the enzyme's name says
T1 sequence (P08246 30-267): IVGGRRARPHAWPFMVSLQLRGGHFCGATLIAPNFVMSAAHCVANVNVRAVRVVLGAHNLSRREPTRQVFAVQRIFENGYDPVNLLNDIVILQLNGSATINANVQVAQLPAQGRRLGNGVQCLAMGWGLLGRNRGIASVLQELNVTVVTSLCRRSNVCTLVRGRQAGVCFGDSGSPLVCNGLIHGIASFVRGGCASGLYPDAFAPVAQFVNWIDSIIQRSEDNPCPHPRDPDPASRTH
Put plainly: Anti-elastase activity: release of p-nitroaniline from N-succinyl-(Ala)3-p-nitroanilide, spectrophotometry at 410 nm. It is filed as biochemical. As to conditions: pH 8, 37°C, pH8, 5 min preincubation, substrate 250 µM, read-out: % I (%); for inhibition at 250 µM: Concentration 250 µM; for inhibition at 500 µM: Concentration 500 µM. The source says: Les exemples qui suivent permettent d'illustrer l'invention. Dans ces exemples, on utilise les méthodes d'analyse suivantes : - Spectrographie infrarouge (IR) Les spectres sont réalisés au moyen d'un appareil PERKIN ELMER 1760 IRTF, en dispersion dans KBr à 1 %. Les valeurs sont exprimées en nombre d'onde par centimètre. - Résonance magnétique nucléaire (RMN) Les spectres sont réalisés au moyen d'un appareil BRUCKER DRX 500, à 500 MHz (^1H) et 125 MHz (^13C) dans le DMSO-d6. La calibration de l'appareil est effectuée au moyen de DMSO. Les déplacements chimiques sont exprimés en ppm. L'aspect des signaux est noté : singulet (s), doublet (d), triplet (t), quadruplet (q), multiplet (m), quintuplet (*5) et couplage AB (AB). - Mesure de l'activité anti-élastase L'activité anti-élastase est mesurée selon la méthode qui consiste à faire réagir l'élastase de leucocytes humains (référence SE 563; Elastin Products Co.; Owensville, MO, USA) avec le N-succinyl-(Ala)3-p-nitroanilide (réf. S4760; Sigma) et mesurer la libération de p-nitroaniline. On utilise le N-succinyl-(Ala)3-p-nitroanilide en solution dans le tétrahydrofurane et une solution d'élastase à 100 mg/ml dans un mélange de glycérol et de tampon acétate de sodium (50/50; v/v), pH5. L'activité de l'enzyme est mesurée à 37°C dans 100 mM de tampon Tris-HCI, pH8 contenant 0,01 % de Triton X-100 (volume/volume) et 0,02 % d'azide de sodium (poids/volume). Le céramide à tester, solubilisé dans le tétrahydrofurane (concentration en THF = 0,5 % en volume) est préincubé en présence de l'enzyme (0,05 mg/ml) dans le tampon pendant 5 minutes à 37°C. On ajoute le N-succinyl-(Ala)3-p-nitroanilide (concentration finale : 250 µM) et on mesure la libération de la p-nitroaniline dans une cuve en quartz par spectrophotométrie à 410 nm. La capacité inhibitrice du céramide est exprimée en pourcentage d'inhibition (% I) selon la relation : %I = (1 -(Vi)/(Vo))×100 [formula] dans laquelle Vi et Vo sont les vitesses d'apparition de la p-nitroaniline en présence et en absence d'inhibiteur respectivement. - Mesure de l'amélioration de la barrière cutanée a) mesure de la Perte Insensible en Eau (PIE) La mesure de la PIE permet de quantifier la très faible quantité d'eau qui diffuse passivement à travers le stratum corneum. Ce paramètre représente un très bon index de la fonction barrière du stratum corneum. Cette méthode est surtout utilisée pour contrôler l'efficacité de formules cosmétiques qui, contenant certains types de lipides sont capables de diminuer la PIE et, en conséquence, d'empêcher la déshydratation du stratum corneum. La sonde est laissée en contact de la peau pendant 2 minutes environ de façon à atteindre une position d'équilibre. PIE = D'(dP)/(dx)(gradient de pression de vapeur) [formula] Les valeurs sont exprimées en g/m^2/heure et permettent de calculer un delta de PIE = PIE (peau traitée) - PIE (peau témoin). L'appareil utilisé est un Evaporimètre EPI de Servomed. Les mesures sont effectuées sur deux groupes de 15 volontaires sains ayant une peau sèche, avant l'application du produit (t=0) et après l'application (t=0,5 heure, 1 heure, 3 heures et 6 heures) sur la face interne des deux avant-bras. L'analogue de céramide selon l'invention ou le céramide témoin est incorporé dans une crème ayant la composition suivante (en % en poids) : […]

On to `CCCCCCCCCCCCCCCC(=O)NC(CC)(CO)COC(=O)CCCCCCCCCCCCCCC` (stereo not shown) [Exemple 3, 1-palmitoyl-2-éthyl-2-palmitoylamino-1,3-propanediol], for which the inhibition at 250 µM came out at 33% and the inhibition at 500 µM was 43%.

Turning to `CCCCCCCCCCCCCCCC(=O)NC(CO)COC(=O)CCCCCCCCCCCCCCC` (stereo not shown) [Exemple 1, 1-palmitoyl-2-palmitoylamino-1,3-propanediol], the inhibition at 250 µM is 55% and the inhibition at 500 µM was 66%.

Regarding `CCCCCCCCCCCCCCCCCC(=O)N[C@@H](CO)[C@H](O)[C@H](O)CCCCCCCCCCCCCC` [Référence (b), N-stéaroyl-phytosphingosine, reference compound], the inhibition at 250 µM was 44% and the inhibition at 500 µM was 50%.

For the compound `CCCCCCCCCCCCCCCC(=O)NC(C)(CO)COC(=O)CCCCCCCCCCCCCCC` (stereo not shown) [Exemple 2, 1-palmitoyl-2-méthyl-2-palmitoylamino-1,3-propanediol], the inhibition at 250 µM was determined as 8% and the inhibition at 500 µM is 57%.

In the case of `CCCCCCCCCCCCC/C=C/[C@@H](O)[C@H](CO)NC(=O)CCCCCCCCCCCCCCC` [Référence (a), N-palmitoyl-D-érythro-1,3-dihydroxy-2-amino-4-trans octadécène, reference compound], the inhibition at 250 µM was 81% and the inhibition at 500 µM was 100%.

(Values after patent EP0968998A1, “Cosmetic compositions, ceramide analogues with anti-elastase activity and process for their preparation” (ELF ATOCHEM S.A., priority 1998, dated 2000).)
